In assay [1] the target is T1, D(2) dopamine receptor (Bos taurus, UniProt P20288). Nature of the assay: Inhibition of [3H]YM-09151-2 binding to bovine retina membrane Dopamine receptor D2, low affinity site.
The target of assay [2] is T1, D(2) dopamine receptor. In words: Inhibition of [3H]YM-09151-2 binding to bovine retina membrane Dopamine receptor D2, high affinity site.
For assay [3], the target named is T1, D(2) dopamine receptor. In words: Tested for binding affinity against Dopamine receptor D2 like from bovine striatum membranes by using [3H]YM-09151-2 radioligand.
Another assay concerns the target D(1A) dopamine receptor (Bos taurus, UniProt Q95136). Nature of the assay: Binding affinity against Dopamine receptor D1 like from bovine retina membranes measured using [3H]SCH-23390 radioligand.

T1 sequence (P20288 whole entry): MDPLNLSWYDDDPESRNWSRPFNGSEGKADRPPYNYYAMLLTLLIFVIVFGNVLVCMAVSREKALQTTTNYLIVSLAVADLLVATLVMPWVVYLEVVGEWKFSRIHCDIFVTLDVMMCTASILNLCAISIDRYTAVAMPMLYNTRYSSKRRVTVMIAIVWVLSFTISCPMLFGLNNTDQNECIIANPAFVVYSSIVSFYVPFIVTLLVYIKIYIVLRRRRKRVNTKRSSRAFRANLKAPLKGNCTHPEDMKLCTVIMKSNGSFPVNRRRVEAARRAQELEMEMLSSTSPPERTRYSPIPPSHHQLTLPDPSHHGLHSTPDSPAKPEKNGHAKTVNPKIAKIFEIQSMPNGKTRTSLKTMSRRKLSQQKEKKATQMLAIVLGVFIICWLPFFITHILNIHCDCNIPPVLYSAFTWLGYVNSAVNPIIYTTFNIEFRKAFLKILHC
Sequence of D(1A) dopamine receptor (Q95136 whole entry): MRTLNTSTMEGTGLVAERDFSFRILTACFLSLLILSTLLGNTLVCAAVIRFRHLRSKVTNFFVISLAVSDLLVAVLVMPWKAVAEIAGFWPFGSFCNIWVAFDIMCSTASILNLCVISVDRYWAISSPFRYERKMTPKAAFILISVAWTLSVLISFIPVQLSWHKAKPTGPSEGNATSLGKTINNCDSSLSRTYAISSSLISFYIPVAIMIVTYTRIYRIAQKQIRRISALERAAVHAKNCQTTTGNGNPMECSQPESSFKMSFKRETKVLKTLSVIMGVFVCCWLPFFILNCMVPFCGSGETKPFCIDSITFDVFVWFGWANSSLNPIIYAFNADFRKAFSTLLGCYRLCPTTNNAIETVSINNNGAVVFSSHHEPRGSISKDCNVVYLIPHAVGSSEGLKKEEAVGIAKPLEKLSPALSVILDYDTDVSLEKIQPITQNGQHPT

Consider `Cc1cc(C)cc(C2CCCNC2)c1` (stereo unspecified), for which the inhibition constant (Ki) at D(2) dopamine receptor [1] amounted to 24 µM; on D(2) dopamine receptor [2], 0.24 µM.
Regarding `CCCN1CCCC(c2cc(C)cc(C)c2)C1` (stereo unspecified), the Ki turned out to be 9.3 µM at D(2) dopamine receptor [1], 1.3 µM at D(2) dopamine receptor [3], 60 µM at D(1A) dopamine receptor and 0.052 µM at D(2) dopamine receptor [2].
On to `CCCN1CCC[C@@H](c2cccc(O)c2)C1` [PRECLAMOL], for which the inhibition constant Ki stood at 12 µM at D(2) dopamine receptor [1], 2.1 µM at D(2) dopamine receptor [3] and 0.53 µM on D(2) dopamine receptor [2].
For `CCCN1CCCC(c2ccc(C)cc2C)C1` (stereo unspecified), the Ki worked out at 17 µM on D(2) dopamine receptor [1], 100 µM on D(1A) dopamine receptor and 0.72 µM on D(2) dopamine receptor [2].
Consider `Cc1cccc(C2CCCNC2)c1C` (stereo unspecified), for which the Ki at D(2) dopamine receptor [1] turned out to be 16 µM; on D(2) dopamine receptor [2], 0.043 µM.
The corresponding values for `Cc1ccc(C2CCCNC2)cc1C` (stereo unspecified) are 19 µM and 0.14 µM.
In the case of `NCCc1ccc(O)c(O)c1` [DOPAMINE], the affinity on D(1A) dopamine receptor corresponds to a Ki of 4.3 µM.
As to `CCCN1CCCC(c2cccc(C)c2C)C1` (stereo unspecified), the inhibitory constant (Ki) on D(2) dopamine receptor [1] amounted to 7.8 µM; at D(2) dopamine receptor [3], 4.9 µM; on D(1A) dopamine receptor it was 60 µM; on D(2) dopamine receptor [2] it was 0.0753 µM.
Turning to `CCCN1CCCC(c2c(C)cccc2C)C1` (stereo unspecified), the Ki was 23 µM at D(2) dopamine receptor [1], 98 µM at D(1A) dopamine receptor and 0.156 µM on D(2) dopamine receptor [2].
On to `CCCN1CCCC(c2ccc(C)c(C)c2)C1` (stereo unspecified), for which the Ki at D(2) dopamine receptor [1] was determined as 8.2 µM; at D(2) dopamine receptor [3], 4.99 µM; at D(1A) dopamine receptor, 102 µM; on D(2) dopamine receptor [2], 0.0191 µM.
On to `CCCN1CCCC(c2cc(C)ccc2C)C1` (stereo unspecified), for which the inhibitory constant (Ki) on D(2) dopamine receptor [1] was 25 µM; at D(1A) dopamine receptor, 112 µM; on D(2) dopamine receptor [2], 0.54 µM.
